System: DLD-1 multicell layers
Experiment: Penetration of EO9 through DLD-1 multicell layers (transwell apparatus, HPLC)
Assay type: in vitro ADME, human
Experimental: The cell line used in this study was DLD-1 human colon adenocarcinoma cells which was selected because of its ability to form tight junctions between cells thereby forming a continuous ‘barrier’ across which the drug must cross. To assess drug penetration, drugs were added to the top chamber and the concentration of drug in the bottom chamber was determined over a range of time intervals.
DLD-1 cells (2.5×10^5 in 200 μl of medium) were added to the top chamber and allowed to settle and attach to the membrane for approximately 3 hours at 37° C. in a CO2 enriched (5%) atmosphere. Once cells attached, the transwell was inserted into one well of a 24 well plate and 600 μl media was added to the bottom chamber. The apparatus was then incubated at 37° C. for 4 days with daily media changes to both the upper and lower chamber. […] For each assay, 3 transwells were removed for histological examination and accurate determination of thickness and integrity (see below for details).
Throughout all procedures, the media used was as described above except for the fact that phenol red free media was used (phenol red elutes very close to EO9 on the chromatograms). EO9 was added to the top chamber at t=0 in a volume of 100 μl and the bottom chamber contained 600 μl of media (constantly stirred). […]

Compound: Cn1c(/C=C/CO)c(CO)c2c1C(=O)C=C(N1CC1)C2=O [EO9, 3-hydroxymethyl-5-aziridinyl-1-methyl-2-(1H-indole-4,7-dione)-propenol]
- multicell layer penetration rate of EO9 (as the concentration of PG increases, 347 μM in top chamber, 10 minute intervals over 1 hour): decreases
- metabolites or breakdown products observed (at any of the evaluated time points of the penetration experiment): No obvious metabolites or breakdown products were observed

From patent US20070203112A1, “BLADDER CANCER TREATMENT AND METHODS” (priority 2006, published 2007)
